Experimental findings from patent US20110203018A1, “Use of Carboxamides on Cultivated Plants” (BASF SE, priority 2008, published 2011) are described below.

For assay [1], the system named is Leptosphaeria maculans. The assay can be described thus: Field trial: Leptosphaeria maculans in oilseed rape (stem scoring, disease index). The format is in vivo.
Assay [2] deals with oilseed rape. The assay can be described thus: Field trial: oilseed rape grain yield. The class given is in vivo. The procedure:
Oilseed rape was grown in 2002 at the Verde in France. The variety Colosse was planted at a seeding rate of 3 kg/ha. Row spacing was 17 cm. Plot size was 30 m^2. […] The formulation was diluted in a total spray volume of 300 l/ha.
At maturity, the plants were harvested and the grain yield was measured (Tab. 4).

The subject of assay [3] is maize. As to the kind of experiment: Field trial: green leaf retention in maize (green leaf area). The format is in vivo. From the text:
The variety DKB 390 was planted at a seeding rate of 60,000 plants per ha. Row spacing was 80 cm. Plot size was 30 m^2. […] Green leaf retention was estimated in treated and control plants by estimating the green leaf area 28 days after treatment in 10 randomly chosen plants per plot.

In assay [4] the test system is rice. As to the kind of experiment: Field trial: rice grain yield. The format is in vivo. Here is the method: Imidazolinone tolerant rice ([…]) was grown in 2008 at Washington, 7033 Highway 103, LA, USA. […] Row spacing was 18 cm. Plot size was 27.5 m^2. […] At maturity, the plants were harvested and the grain yield was measured (Tab. 3).
Assay [5] relates to Rhizoctonia solani. As to the kind of experiment: Field trial: efficacy against Rhizoctonia solani in rice (infected leaf area, frequency of infection). The format is in vivo. Here is the method: Imidazolinone tolerant rice ([…]) was grown in 2008 at Washington, 7033 Highway 103, LA, USA. […] Row spacing was 18 cm. Plot size was 27.5 m^2. […] Infection with Rhizoctonia solani 77 days after treatment with COMPOUND 2 was assessed (Tab. 3) by estimating the infected leaf area and frequency of infection in 10 randomly chosen plants per plot.

Assay [6] deals with common rust (Puccinia sorghi). The assay can be described thus: Field trial: efficacy against common rust in maize (infected leaf area). The format is in vivo. An excerpt:
The variety DKB 390 was planted at a seeding rate of 60,000 plants per ha. Row spacing was 80 cm. Plot size was 30 m^2.

Assay [7] deals with Asian Soybean Rust (Phakopsora pachyrhizi). The assay can be described thus: Field trial: efficacy against Asian Soybean Rust in soybeans (infected leaf area). Conditions: for Efficacy against soybean rust (%): soybeans, field, EC, assessed 20 days after last treatment, infection in Control 95% infected leaf area.
Assay [8] deals with maize. The assay can be described thus: Field trial: maize grain yield and thousand grain weight (TGW). The class given is in vivo. The procedure: The variety DKB 390 was planted at a seeding rate of 60,000 plants per ha. Row spacing was 80 cm. Plot size was 30 m^2. […] At maturity, the plants were harvested and the grain yield and thousand grain weight (TGW) were measured (Tab. 2).

Assay [9] concerns soybeans. The assay can be described thus: Field trial: soybean grain yield and thousand grain weight (TGW). The class given is in vivo. Conditions: for Grain Yield (dt/ha) / TGW: soybeans, field, EC; for Grain Yield (dt/ha): Control 16.6; for TGW: Control 113.9.
Where [10] appears, read: herbicide tolerant oilseed rape variety.
Setting [11] is: 30 g AI/ha applied twice (BBCH 55/61 and 65/71).
[12] abbreviates: 50 g AI/ha applied twice (application time BBCH 19).

For the compound `O=C(Nc1ccccc1-c1ccc(Cl)cc1)c1cccnc1Cl` [BOSCALID, boscalid], the “activity against Leptosphaeria maculans versus expected from combination of effects” value in [1] (herbicide tolerant (imidazolinone resistance) oilseed rape variety) was “increased”. Besides, the “disease control, combination of treatment with herbicide tolerant variety” value in assay [1] (setting [10]) is “synergistic effects”. The LEPTMA disease index in assay [1] (oilseed rape Colosse, field, 50 g/ha, WG (Cantus), BBCH 16, 209 days after treatment, Control 3.17, infection rate in Control 49%) is recorded as 1.71. In assay [1] (oilseed rape field trial, Cantus WG 500 g/kg, 0.5 kg/ha, once, 209 days after treatment), the “activity against Leptosphaeria maculans in oilseed rape” value was “good activity”. Besides, in [2] (setting [10]), the “grain yield, combination of treatment with herbicide tolerant variety” value is on record as “synergistic effects” and the “increase in grain yield versus expected from single effects” value is on record as “bigger”. For the same compound, in assay [2] (oilseed rape Colosse, field, 50 g/ha, WG (Cantus), BBCH 16, Control 33.9), the “Grain Yield (dt/ha)” value turned out to be 49.3 dt/ha. For the same compound, the “grain yield compared to the untreated control” value in assay [2] (oilseed rape field trial) is “increase”.

Regarding `Cn1cc(C(=O)Nc2ccccc2-c2cc(F)c(F)c(F)c2)c(C(F)F)n1` [COMPOUND 2, N-(3′,4′,5′-trifluorobiphenyl-2-yl)-3-difluoromethyl-1-methyl-1H-pyrazole-4-carboxamide], the “Green Leaf Area (%)” value in assay [3] (maize DKB 390, field, 50 g/ha, EC, BBCH 51/55, 28 days after treatment, Control 34) came to 40%. Moreover, the “green leaf area compared to control plants” value in assay [3] (maize field trial, 28 days after treatment) was “increase”. Also, in assay [3] (transgenic maize plants), the “increase in green leaf tissue versus expected from combination of effects” value is recorded as “bigger”. In addition, the “grain yield, combination of treatment with Imidazolinone tolerance trait” value in [4] (CL 161 rice) was “synergistic effects”. In addition, the “increase in grain yield compared with a conventional variety” value in assay [4] (Clearfield variety (CL 161)) is on record as “bigger”. Further, the “Grain Yield (dt/ha)” value in assay [4] (Imidazolinone tolerant rice CL 161, field, 50 g/ha, EC, BBCH 32/34, Control 37.76) amounted to 54.28 dt/ha; in assay [8] (maize DKB 390, field, 50 g/ha, EC, BBCH 51/55, Control 49.2), 55.2 dt/ha; in [9] (setting [11]), 21.6 dt/ha; in [9] (setting [12]), 22.9 dt/ha. The “grain yield compared to the untreated control” value in assay [4] (rice field trial), in assay [8] (maize field trial) and in assay [9] (soybean field trial) was “increase” throughout. Also, in assay [5] (CL 161 rice), the “disease control, combination of treatment with Imidazolinone tolerance trait” value is on record as “synergistic effects”. The “Efficacy against Rhizctonia (%) Frequency” value in assay [5] (Imidazolinone tolerant rice CL 161, field, 50 g/ha, EC, BBCH 32/34, 77 days after treatment) is listed as 45.6%. For the same compound, the “Efficacy against Rhizctonia (%) Infection” value in assay [5] (Imidazolinone tolerant rice CL 161, field, 50 g/ha, EC, BBCH 32/34, 77 days after treatment, infection in Control 8% infected leaf area) worked out at 50%. For the same compound, the “activity against Rhizoctonia compared with a variety without the herbicide tolerance trait” value in [5] (Imidazolinone tolerant rice variety (CL 161)) is “higher”. Besides, the “activity against Rhizoctonia in rice” value in assay [5] (rice field trial, EC 62.5 g/l, 0.8 l/ha, once, 77 days after treatment) is given as “active”. Also, in [6] (maize DKB 390, field, 50 g/ha, EC, BBCH 51/55, 28 days after treatment, infection in Control 8.8% infected leaf area), the “Efficacy against rust (%)” value is 88.6%. Further, in assay [6] (maize field trial, EC 62.5 g/l, 0.8 l/ha, once, 28 days after treatment), the “activity against common rust in maize” value was “good activity”. Also, in [6] (transgenic glyphosate tolerant and/or insect resistant maize varieties), the “activity against common rust versus expected from single effects” value is “increased”. Besides, the “disease control, combination of treatment with transgenic variety” value in assay [6] (transgenic maize variety) and in assay [7] (transgenic soybean variety) was “synergistic effects” in each case. The “activity against Asian Soybean Rust” value in assay [7] (soybean field trial, EC 62.5 g/l, 0.48 l/ha and 0.8 l/ha, applied twice, 20 days after last treatment) is reported as “good activity”. In addition, the “Efficacy against soybean rust (%)” value in assay [7] (setting [11]) is 34%; in assay [7] (setting [12]), 46%. Besides, in assay [7] (transgenic glyphosate tolerant soybean variety), the “activity against Asian Soybean Rust versus expected from single effects” value was “increased”. The “TGW” value is 333 g in assay [8] (maize DKB 390, field, 50 g/ha, EC, BBCH 51/55, Control 325); 143.5 g in assay [9] (setting [11]); 144.1 g in assay [9] (setting [12]). In assay [8] (maize field trial), the “grain weight of harvested grain over the untreated control” value is on record as “increased”. In addition, the “grain yield, combination of treatment with transgenic variety” value in assay [8] (transgenic maize variety) and in assay [9] (transgenic soybean variety) was “synergistic effects” in each case. Besides, the “increase in grain yield and in grain weight versus expected from single effects” value in [8] (transgenic maize variety) and in [9] (transgenic soybean variety) was “much bigger” each time. Further, the “grain weight of harvested grain versus the untreated” value in assay [9] (soybean field trial) is given as “increased”.
